We go through 13 compounds from article PMC4586009, “Phytochemical composition, antiparasitic and α–glucosidase inhibition activities from Pelliciera rhizophorae” (Chemistry Central Journal, 2015).

The structures appear in SMILES notation. Like-named read-outs stand apart in the source and are kept apart here.

By IC50 is commonly meant the concentration that inhibits the measured activity by half. Broadly, the melting point is the temperature, or range, at which the solid turns liquid.

One series deals with L. donovani. Put plainly: In vitro antiparasitic assay against L. donovani amastigotes (PicoGreen). It counts as cell-based. Conditions: Leishmania donovani, I = inactive at 10 µg/mL. As for the experimental part: Promastigotes cultures of L. donovani are maintained in continuous log phase growth in Liver Infusion Tryptose (LIT) Medium, pH 7.2, supplemented with 10 % Fetal Bovine Serum (FBS) at 28 °C. For promastigote transformation into amastigote forms, 1 mL of promastigotes log phase culture is transferred into 5 mL of Medium 199 Modified (SIGMA-Cat M3769) pH 5.5, supplemented with 0.1 g/L L-glutamine, 2.2 g/L sodium bicarbonate, 2 g Glucose, 5 mL penicillin–streptomycin and 20 % FBS and maintained at 35 °C until its use for bioassays.
(§1) Dry samples were diluted in 100 % DMSO (dimethylsulfoxide) to obtain a concentration of 4 mg/mL. Samples are used immediately in the bioassay and stored at −20 °C in the dark until results are obtained. All assays are performed in sterile 96-well microtitre culture plates (Costar Cat 3595). In a primary screening samples are tested in duplicate wells at a final concentration of 10 μg/mL. […] The IC50 is analyzed with the Excel Add-On software LSW Data Analysis Tool. The concentration that inhibited the growth of the parasites to 50 % (IC50) was calculated through the inhibition curve of the obtained optical density values, and compared to the untreated controls.
(§2) L. donovani and P. falciparum A […] is used to determine the amount of parasites in culture. After 48 and 72 h incubation, respectively, 1 % PicoGreen® solution is added to all wells in the dark. After shaking, the plate is taken into a microplate reader employing 485/20 nm excitation and 528/20 nm emission filter sets.

The nature of series [1]: Cytotoxicity bioassay (MTT). The class given is cell-based. Conditions: African green monkey, five days, I = inactive at 10 µg/mL. As for the experimental part: Vero cells were seeded in 96-well plates in RPM-I1640 medium supplemented with 10 % FBS and 1 % penicillin/streptomycin. The cells were allowed to grow for 24 h before adding the test compounds, dissolved in DMSO, to final concentrations of 10, 4, 0.2 and 0.08 µg/mL. A sample with only a volume of DMSO similar to the added volume in the compounds samples was placed as a negative control in all plates. All samples were incubated for five days before staining and examining for reduction of 3-(4,5-dimethylthiazol-2-yl)-2,5-diphenyltetrazolium bromide (MTT) and analyzed 4 h later in a color plate reader at 570 nm.

In series [2] the target is α-glucosidase from baker's yeast. The experiment in a line: α-Glucosidase inhibitory assay (PNP-G substrate) and kinetic analysis. The class given is biochemical, S. cerevisiae. As for the experimental part:
Lineweaver–Burk plots were constructed using different concentrations of substrate and triterpenes 1–5.
The α-glucosidase inhibitory assay was performed according to Chan and collaborators (2010), with modifications. α-glucosidase from baker’s yeast purchased from Sigma Chemical Co. The inhibition was measured spectrophotometrically at pH 7.0 and 37 °C employing 2 mM p-nitrophenyl α-D-glucopyranoside (PNP-G) as a substrate and 32 mU/mL of enzyme, in 100 mM potassium phosphate buffer (enzyme stock). […] The absorbance (A) of 4-nitrophenol released by the hydrolysis of PNP-G was measured at 400 nm by Synergy HT Bio Tek microplate spectrophotometer. […] After incubating, 150µL of substrate was added and further incubated for 20 min at 37 °C. All assays are performed in 96-well microplates (Greiner bio-one 655101) in duplicate. The activity of samples was calculated as a percentage in comparison to a control (DMSO or MeOH instead of sample solution) according with the following equation:
%Inhibition=(ΔAcontrol-ΔAsample)/ΔAcontrol×100%
The concentration required to inhibit activity of the enzyme by 50 % (IC50) was calculated by regression analysis.

Series [3] has as its system T. cruzi. Put plainly: In vitro T. cruzi growth inhibition, Tulahuen clone C4 expressing β-galactosidase, in Vero cells. The class given is cell-based. The conditions noted are these: Trypanosoma cruzi, strain Tulahuen, I = inactive at 10 µg/mL, read-out: Antiparasitic activity IC50, T. cruzi. As for the experimental part:
T. cruzi (Tulahuen) C4 strain lactosidase (Lac Z) gene. The strain is maintained on VERO Cells (African Green Monkey cell line obtained from ATCC on 2006), grown in monolayers in RPM-I1640 medium, supplemented with 10 % heat inactivated FBS. All cultures and assays are conducted at 37 °C under an atmosphere of 5 % CO2/95 % air mixture.
as §1
T. cruzi In this assay, a colorimetric method is used to determine the inhibition of parasite growth as detected by reduction of β-galactosidase (β-Gal) as a reporter gene, expressed by the Tulahuen clone C4 of T. cruzi. Assays are performed on […], the intracellular form of the parasite infecting African green monkey kidney (VERO) cells, exposed during 120 h to different concentrations (50, 10 and 2 µg/mL) of the test substance. The resulting colour from the cleavage of chlorophenol red-β-D-galactoside (CPRG) by β-Gal expressed by the parasite, was measured using a Benchmark Bio-Rad microplate reader at 570 nm.

Series [4] has as its system P. falciparum. The experiment in a line: In vitro antiplasmodial assay, chloroquine-resistant strain Indochina W2 (PicoGreen). The class given is cell-based. Conditions: Plasmodium falciparum, I = inactive at 10 µg/mL, read-out: Antiparasitic activity IC50, P. falciparum. As for the experimental part: The cultures are kept in synchrony by thermal cycling incubation and are maintained in continuous log phase growth in RPM-I1640 medium (SIGMA) supplemented with 2 % washed human O Rh positive (+) erythrocytes, 25 mM HEPES, […] NaHCO3, and 10 % Human Serum from an O Rh+ donor. All cultures and assays are conducted at 37 °C under an atmosphere of 5 % CO2 and 5 % O2, with a balance of N2 (90 %).
as §1, §2

The subject of series [5] is P. falciparum. Conditions: read-out: IC50 of positive control for P. falciparum; positive control range; cited from earlier work.
Series [6] concerns T. cruzi. The conditions noted are these: read-out: IC50 of positive control for T. cruzi; positive control range; cited from earlier work.
[7] abbreviates: read-out: IC50, Vero cells (cytotoxicity).
Setting [8] is: pH 7.0, 37 °C, 2 mM PNP-G, read-out: α-glucosidase inhibition IC50.
Where [9] appears, read: α-glucosidase IC50 in Table 2, read-out: IC50.

As to `CC1(C)CC[C@]2(C)CC[C@]3(C)C(=CC[C@@H]4[C@@]5(C)CC[C@H](O)C(C)(C)[C@@H]5CC[C@]43C)[C@@H]2C1` [Compound 2, β-amyrine], the IC50 is over 10 µg/mL with L. donovani; 0.02 µM in series [2] (setting [8]); 0.02 µM in series [2] (setting [9]); over 10 µg/mL in the series on T. cruzi [3]; over 10 µg/mL in the series with P. falciparum [4]. Moreover, the concentration for half-maximal inhibition (IC50) at 5 days in series [1] (setting [7]) is over 10 µg/mL.
Regarding `C[C@H]1[C@H](C)CC[C@]2(C(=O)O)CC[C@]3(C)C(=CC[C@@H]4[C@@]5(C)CC[C@H](O)C(C)(C)[C@@H]5CC[C@]43C)[C@H]12` [Compound 3, ursolic acid], the IC50 with L. donovani was 2.4 ± 0.1 µM; in series [2] (setting [8]), 1.08 µM; in series [2] (setting [9]), 1.08 µM; in the series with T. cruzi [3], over 10 µg/mL; with P. falciparum [4], 21.9 ± 0.6 µM. Further, the IC50 at 5 days in series [1] (Vero cells) came to 64.8 ± 0.3 µM.
For `C[C@H]1[C@H](C)CC[C@]2(C)CC[C@]3(C)C(=CC[C@@H]4[C@@]5(C)CC[C@H](O)C(C)(C)[C@@H]5CC[C@]43C)[C@H]12` [Compound 1, α-amyrine], the IC50 with L. donovani was over 10 µg/mL; in series [2] (setting [8]), 1.45 µM; in series [2] (setting [9]), 1.45 µM; in the series on T. cruzi [3], 19 ± 0.6 µM; in the series on P. falciparum [4] it was over 10 µg/mL. The same compound gave an IC50 at 5 days in series [1] (Vero cells) of over 10 µg/mL.
With `C[C@@H]1[C@H](O)[C@@H](C)/C=C/C=C/C=C/C=C/C=C/C=C/C=C/[C@H](O[C@@H]2O[C@H](C)[C@@H](O)[C@H](N)[C@@H]2O)C[C@@H]2O[C@](O)(C[C@@H](O)C[C@@H](O)[C@H](O)CC[C@@H](O)C[C@@H](O)CC(=O)O[C@H]1C)C[C@H](O)[C@H]2C(=O)O` [Anfotericine B, Amphotericin B, reference compound], half-maximal inhibition in the series with L. donovani (IC50) required 1 ± 0.12 µM.
As for `[O-][S@+]1C[C@H](O)CS1` [Compound 6, brugierol], the IC50 in the series on L. donovani, in the series on T. cruzi [3] and with P. falciparum [4] was over 10 µg/mL throughout. In series [1] (Vero cells), this compound came in with an IC50 at 5 days of over 10 µg/mL. Moreover, in series [2] (pH 7.0, 37 °C, 2 mM PNP-G), the “α-glucosidase inhibition IC50” value is “inactive”.
With `O=c1c(O)c(-c2ccc(O)c(O)c2)oc2cc(O)cc(O)c12` [Compound 9, quercetin], the IC50 with L. donovani is 12.6 ± 0.2 µM; in series [2] (setting [8]), 29.8 µM; with T. cruzi [3], 13 ± 0.4 µM; with P. falciparum [4] it was 9.7 ± 0.3 µM. For the same compound, the IC50 at 5 days in series [1] (Vero cells) is over 10 µg/mL.
Regarding `C[C@H]1O[C@H](O[C@H]2[C@H](O)[C@@H](O)[C@@H](O[C@H]3[C@H](O)[C@@H](O)C(O)O[C@@H]3CO)O[C@@H]2CO)[C@H](O)[C@@H](O)[C@@H]1N[C@H]1C=C(CO)[C@@H](O)[C@H](O)[C@H]1O` (some centres unmarked) [acarbose, reference compound], the “type of α-glucosidase inhibition (Lineweaver–Burk plots)” value in series [2] (different concentrations of substrate and inhibitor) is on record as “competitive inhibitor”.
As for `CCN(CC)CCCC(C)Nc1ccnc2cc(Cl)ccc12` (centres unmarked) [Chloroquine], the 50% inhibitory concentration (IC50) in the series with P. falciparum [5] is 0.08 to 0.1 µM.
As to `O=c1c(O)c(-c2ccc(O)cc2)oc2cc(O)cc(O)c12` [Compound 8, kaempferol], the IC50 in the series on L. donovani was 22.9 ± 0.2 µM; in series [2] (setting [8]), 262 µM; in the series with T. cruzi [3] it was over 10 µg/mL; in the series on P. falciparum [4], over 10 µg/mL. Further, inhibition in series [1] (Vero cells) was half-maximal at 154.9 ± 0.6 µM (IC50 at 5 days).
Take `CC1(C)CC[C@]2(C(=O)O)CC[C@]3(C)C(=CC[C@@H]4[C@@]5(C)CC[C@H](O)C(C)(C)[C@@H]5CC[C@]43C)[C@@H]2C1` [Compound 4, oleanolic acid]: the IC50 in the series on L. donovani is 5.3 ± 0.2 µM; in series [2] (setting [8]), 0.98 µM; in series [2] (setting [9]), 0.98 µM; with T. cruzi [3], over 10 µg/mL; with P. falciparum [4], over 10 µg/mL. In series [1] (Vero cells), this compound registered an IC50 at 5 days of 140.8 ± 0.5 µM.
On to `C=C(C)[C@@H]1CC[C@]2(C(=O)O)CC[C@]3(C)[C@H](CC[C@@H]4[C@@]5(C)CC[C@H](O)C(C)(C)[C@@H]5CC[C@]43C)[C@@H]12` [Compound 5, betulinic acid], for which the IC50 is over 10 µg/mL in the series with L. donovani; 2.37 µM in series [2] (setting [8]); 2.37 µM in series [2] (setting [9]); over 10 µg/mL in the series on T. cruzi [3]; 18 ± 0.4 µM with P. falciparum [4]. Further, the IC50 at 5 days in series [1] (setting [7]) was determined as 131.1 ± 0.3 µM.
Regarding `[O-][S@@+]1C[C@H](O)CS1` [Compound 7, iso-brugierol], the melting point lay in the range of 82 to 83 °C. Moreover, the IC50 with L. donovani was over 10 µg/mL. For the same compound, the IC50 at 5 days in series [1] (Vero cells) was over 10 µg/mL. For the same compound, the “α-glucosidase inhibition IC50” value in series [2] (pH 7.0, 37 °C, 2 mM PNP-G) is “inactive”. Besides, the IC50 in the series on T. cruzi [3] was over 10 µg/mL. For the same compound, in the series on P. falciparum [4], the IC50 is over 10 µg/mL.
For `CC1CS(=O)(=O)CCN1/N=C/c1ccc([N+](=O)[O-])o1` (centres unmarked) [Nifurtimox, reference compound], the results for the IC50 with T. cruzi [6] and with T. cruzi [3] were 0.15 to 13.4 µM and 1.6 ± 0.11 µM, respectively.
